# Data as given in US20060134102A1, “Lymphotoxin beta receptor agents in combination with chemotherapeutic agents” (Biogen Idec MA Inc., priority 2002, published 2006).
# Test system: KM-20L2 human colorectal adenocarcinoma
# Experiment: KM-20L2 xenograft model: growth of established KM-20L2 human colorectal tumors in athymic nude mice (tumor volume/weight, % T/C, Fa, Combination Index)
# Format: in vivo
substance,measurement,setting,value
"huCBE11: humanized anti-LT-β-R agonist antibody (LTβ receptor-activating mAb), described in WO 02/30986",Median Effect Dose,"Combined (1:0.63 huCBE11:Camptosar), dose of the labelled agent in the combination, Day 13",10.7 mg/kg
same,Median Effect Dose,"Combined (1:0.63 huCBE11:Camptosar), dose of the labelled agent in the combination, Day 16",2.6 mg/kg
same,Median Effect Dose,"Combined (1:0.63 huCBE11:Camptosar), dose of the labelled agent in the combination, Day 20",1.0 mg/kg
same,Median Effect Dose,"Combined (1:0.63 huCBE11:Camptosar), dose of the labelled agent in the combination, Day 23",1.1 mg/kg
same,Median Effect Dose,"Combined (1:0.63 huCBE11:Camptosar), dose of the labelled agent in the combination, Day 27",1.5 mg/kg
same,Median Effect Dose,"Combined (1:0.63 huCBE11:Camptosar), dose of the labelled agent in the combination, Day 30",1.8 mg/kg
same,Median Effect Dose,"Combined (1:0.63 huCBE11:Camptosar), dose of the labelled agent in the combination, Day 34",1.8 mg/kg
same,Median Effect Dose,"Combined (1:0.63 huCBE11:Camptosar), dose of the labelled agent in the combination, Day 37",1.6 mg/kg
same,Median Effect Dose,"Combined (1:0.63 huCBE11:Camptosar), dose of the labelled agent in the combination, Day 41",1.5 mg/kg
same,Median Effect Dose,"Given Separately, Day 13",174 mg/kg
same,Median Effect Dose,"Given Separately, Day 16",981 mg/kg
same,Median Effect Dose,"Given Separately, Day 20",32.7 mg/kg
same,Median Effect Dose,"Given Separately, Day 23",9.0 mg/kg
same,Median Effect Dose,"Given Separately, Day 27",2.1 mg/kg
same,Median Effect Dose,"Given Separately, Day 30",3.8 mg/kg
same,Median Effect Dose,"Given Separately, Day 34",3.6 mg/kg
same,Median Effect Dose,"Given Separately, Day 37",6.6 mg/kg
same,Median Effect Dose,"Given Separately, Day 41",3.0 mg/kg
same,Median Effect Dose,Given Separately; Day 16,2077 mg/kg
same,Median Effect Dose,Given Separately; Day 20,9.5 mg/kg
same,Median Effect Dose,Given Separately; Day 23,4.8 mg/kg
same,Median Effect Dose,Given Separately; Day 27,3.3 mg/kg
same,Median Effect Dose,Given Separately; Day 30,3.8 mg/kg
same,Median Effect Dose,Given Separately; Day 34,3.2 mg/kg
same,Median Effect Dose,Given Separately; Day 37,2.7 mg/kg
same,Median Effect Dose,Given Separately; Day 41,2.4 mg/kg
same,Median Effect Dose,Given Separately; Day 43,2.4 mg/kg
same,Median Effect Dose,dose of the labelled agent when huCBE11 and Gemcitabine Combined (4:5); Day 16,3.6 mg/kg
same,Median Effect Dose,dose of the labelled agent when huCBE11 and Gemcitabine Combined (4:5); Day 20,1.3 mg/kg
same,Median Effect Dose,dose of the labelled agent when huCBE11 and Gemcitabine Combined (4:5); Day 23,0.6 mg/kg
same,Median Effect Dose,dose of the labelled agent when huCBE11 and Gemcitabine Combined (4:5); Day 27,0.7 mg/kg
same,Median Effect Dose,dose of the labelled agent when huCBE11 and Gemcitabine Combined (4:5); Day 30,0.6 mg/kg
same,Median Effect Dose,dose of the labelled agent when huCBE11 and Gemcitabine Combined (4:5); Day 34,0.6 mg/kg
same,Median Effect Dose,dose of the labelled agent when huCBE11 and Gemcitabine Combined (4:5); Day 37,0.4 mg/kg
same,Median Effect Dose,dose of the labelled agent when huCBE11 and Gemcitabine Combined (4:5); Day 41,0.6 mg/kg
same,Median Effect Dose,dose of the labelled agent when huCBE11 and Gemcitabine Combined (4:5); Day 43,0.4 mg/kg
same,% T/C,hCBE11 2 mg/kg; Days 41 to 55,≤ 42%
same,% T/C,hCBE11 4 mg/kg; Days 50 and 55,≤ 42%
same,Mean Fraction Affected (Fa),"huCBE11 0.2 mg/kg alone, Day 9",−0.026
same,Mean Fraction Affected (Fa),"huCBE11 0.2 mg/kg alone, Day 13",0.003
same,Mean Fraction Affected (Fa),"huCBE11 0.2 mg/kg alone, Day 16",0.125
same,Mean Fraction Affected (Fa),"huCBE11 0.2 mg/kg alone, Day 20",0.249
same,Mean Fraction Affected (Fa),"huCBE11 0.2 mg/kg alone, Day 23",0.294
same,Mean Fraction Affected (Fa),"huCBE11 0.2 mg/kg alone, Day 27",0.377
same,Mean Fraction Affected (Fa),"huCBE11 0.2 mg/kg alone, Day 30",0.369
same,Mean Fraction Affected (Fa),"huCBE11 0.2 mg/kg alone, Day 34",0.345
same,Mean Fraction Affected (Fa),"huCBE11 0.2 mg/kg alone, Day 37",0.372
same,Mean Fraction Affected (Fa),"huCBE11 0.2 mg/kg alone, Day 41",0.381
same,Mean Fraction Affected (Fa),huCBE11 0.2 mg/kg; Day 9,0.063
same,Mean Fraction Affected/Fraction Unaffected (Fa/Fu),huCBE11 0.2 mg/kg; Day 9,0.067
same,Mean Tumor Volume,huCBE11 0.2 mg/kg; Day 9,104.8 cubic mm
same,Mean Tumor Volume Decrease,huCBE11 0.2 mg/kg; Day 9,7.0 cubic mm
same,Mean Fraction Affected (Fa),huCBE11 0.2 mg/kg; Day 13,0.071
same,Mean Fraction Affected/Fraction Unaffected (Fa/Fu),huCBE11 0.2 mg/kg; Day 13,0.076
same,Mean Tumor Volume,huCBE11 0.2 mg/kg; Day 13,160.4 cubic mm
same,Mean Tumor Volume Decrease,huCBE11 0.2 mg/kg; Day 13,12.2 cubic mm
same,Mean Fraction Affected (Fa),huCBE11 0.2 mg/kg; Day 16,0.055
same,Mean Fraction Affected/Fraction Unaffected (Fa/Fu),huCBE11 0.2 mg/kg; Day 16,0.058
same,Mean Tumor Volume,huCBE11 0.2 mg/kg; Day 16,250.5 cubic mm
same,Mean Tumor Volume Decrease,huCBE11 0.2 mg/kg; Day 16,14.5 cubic mm
same,Mean Fraction Affected (Fa),huCBE11 0.2 mg/kg; Day 20,0.073
same,Mean Fraction Affected/Fraction Unaffected (Fa/Fu),huCBE11 0.2 mg/kg; Day 20,0.078
same,Mean Tumor Volume,huCBE11 0.2 mg/kg; Day 20,371.9 cubic mm
same,Mean Tumor Volume Decrease,huCBE11 0.2 mg/kg; Day 20,29.1 cubic mm
same,Mean Fraction Affected (Fa),huCBE11 0.2 mg/kg; Day 23,0.016
same,Mean Fraction Affected/Fraction Unaffected (Fa/Fu),huCBE11 0.2 mg/kg; Day 23,0.016
same,Mean Tumor Volume,huCBE11 0.2 mg/kg; Day 23,518.7 cubic mm
same,Mean Tumor Volume Decrease,huCBE11 0.2 mg/kg; Day 23,8.5 cubic mm
same,Mean Fraction Affected/Fraction Unaffected (Fa/Fu),huCBE11 0.2 mg/kg; Day 27,−0.008
same,Mean Tumor Volume,huCBE11 0.2 mg/kg; Day 27,673.8 cubic mm
same,Mean Tumor Volume Decrease,huCBE11 0.2 mg/kg; Day 27,−5.2 cubic mm
same,Mean Fraction Affected (Fa),huCBE11 0.2 mg/kg; Day 30,0.030
same,Mean Fraction Affected/Fraction Unaffected (Fa/Fu),huCBE11 0.2 mg/kg; Day 30,0.030
same,Mean Tumor Volume,huCBE11 0.2 mg/kg; Day 30,792.1 cubic mm
same,Mean Tumor Volume Decrease,huCBE11 0.2 mg/kg; Day 30,24.1 cubic mm
same,Mean Fraction Affected (Fa),huCBE11 0.2 mg/kg; Day 34,0.118
same,Mean Fraction Affected/Fraction Unaffected (Fa/Fu),huCBE11 0.2 mg/kg; Day 34,0.134
same,Mean Tumor Volume,huCBE11 0.2 mg/kg; Day 34,926.4 cubic mm
same,Mean Tumor Volume Decrease,huCBE11 0.2 mg/kg; Day 34,123.9 cubic mm
same,Mean Fraction Affected (Fa),huCBE11 0.2 mg/kg; Day 37,0.132
same,Mean Fraction Affected/Fraction Unaffected (Fa/Fu),huCBE11 0.2 mg/kg; Day 37,0.152
same,Mean Tumor Volume,huCBE11 0.2 mg/kg; Day 37,1048.5 cubic mm
same,Mean Tumor Volume Decrease,huCBE11 0.2 mg/kg; Day 37,159.5 cubic mm
same,Mean Fraction Affected (Fa),huCBE11 0.2 mg/kg; Day 41,0.120
same,Mean Fraction Affected/Fraction Unaffected (Fa/Fu),huCBE11 0.2 mg/kg; Day 41,0.137
same,Mean Tumor Volume,huCBE11 0.2 mg/kg; Day 41,1266.0 cubic mm
same,Mean Tumor Volume Decrease,huCBE11 0.2 mg/kg; Day 41,173.4 cubic mm
same,Mean Fraction Affected (Fa),huCBE11 0.2 mg/kg; Day 43,0.096
same,Mean Fraction Affected/Fraction Unaffected (Fa/Fu),huCBE11 0.2 mg/kg; Day 43,0.107
same,Mean Tumor Volume,huCBE11 0.2 mg/kg; Day 43,1452.0 cubic mm
same,Mean Tumor Volume Decrease,huCBE11 0.2 mg/kg; Day 43,154.7 cubic mm
same,Mean Fraction Affected (Fa),"huCBE11 2 mg/kg alone, Day 9",0.101
same,Mean Fraction Affected (Fa),"huCBE11 2 mg/kg alone, Day 13",0.137
same,Mean Fraction Affected (Fa),"huCBE11 2 mg/kg alone, Day 16",0.322
same,Mean Fraction Affected (Fa),"huCBE11 2 mg/kg alone, Day 20",0.458
same,Mean Fraction Affected (Fa),"huCBE11 2 mg/kg alone, Day 23",0.497
same,Mean Fraction Affected (Fa),"huCBE11 2 mg/kg alone, Day 27",0.542
same,Mean Fraction Affected (Fa),"huCBE11 2 mg/kg alone, Day 30",0.524
same,Mean Fraction Affected (Fa),"huCBE11 2 mg/kg alone, Day 34",0.541
same,Mean Fraction Affected (Fa),"huCBE11 2 mg/kg alone, Day 37",0.485
same,Mean Fraction Affected (Fa),"huCBE11 2 mg/kg alone, Day 41",0.541
same,"% T/C, lowest observed",huCBE11 2 mg/kg and 4 mg/kg; dose ranging study,> 42%
